Values quoted from earlier work as cited in patent publication US10376520B2, “Methods for the treatment of cardiovascular disorders” (Galapagos NV, priority 2015, dated 2019).
Where two headings read alike, the source gives them in different places.

How the values were obtained:
patients = conditions: first 3 months of exposure in the controlled clinical trials, cited from earlier work
RA patient = conditions: 10 mg bid for 6 weeks in RA patient; cited from earlier work

For `C[C@@H]1CCN(C(=O)CC#N)C[C@@H]1N(C)c1ncnc2[nH]ccc12` [Tofacitinib], the “mean [HDL] increased by” value (patients; 5 mg twice daily arm) is listed as 10%, the “mean [LDL] increased by” value (patients; 5 mg twice daily arm) is listed as 15% and the “mean [HDL] increased by” value (patients; 10 mg twice daily arm) is listed as 12%. For the same compound, the “mean [LDL] increased by” value (patients; 10 mg twice daily arm) was 19%, the “mean [LDL]/[HDL] ratios” value (patients) was “essentially unchanged” and the “atherogenic index before and after treatment (unchanged)” value (RA patient) was “about 3.5”.
